Measured values taken from ChEMBL document CHEMBL1148188, “Cytotoxic and antimalarial alkaloids from the bulbs of Crinum amabile” (J Nat Prod, 1993).
Values after ≈ are worked out from the molar mass of the structure shown.

Experiments:
[1] = Cytotoxicity against human BCA1 cells after 3 days by sulforhodamine B assay; type: functional; details: BCA1, 72 h, read-out: ED50 (the source's name)
[2] = tested on: HT-1080; experiment: Cytotoxicity against human HT1080 cells after 3 days by sulforhodamine B assay; type: functional; details: HT-1080, 72 h, read-out: ED50 (the source's name)
[3] = Cytotoxicity against human LUC1 cells after 3 days by sulforhodamine B assay; type: functional; details: LUC1, 72 h, read-out: ED50 (the source's name)
[4] = tested on: SK-MEL-2; experiment: Cytotoxicity against human SK-MEL-2 cells after 3 days by sulforhodamine B assay; type: functional; details: SK-MEL-2, 72 h, read-out: ED50 (the source's name)
[5] = Cytotoxicity against human Col1 cells after 3 days by sulforhodamine B assay; type: functional; details: Col1, 72 h, read-out: ED50 (the source's name)
[6] = tested on: KB; experiment: Cytotoxicity against human KB cells after 3 days by sulforhodamine B assay; type: functional; details: 72 h, read-out: ED50 (the source's name)
[7] = Cytotoxicity against human KBV1 cells after 3 days by sulforhodamine B assay; type: functional; details: KB-V1, 72 h, read-out: ED50 (the source's name)
[8] = tested on: P388; experiment: Cytotoxicity against mouse P388 cells after 3 days by sulforhodamine B assay; type: functional; details: P388, 72 h, read-out: ED50 (the source's name)
[9] = tested on: A-431; experiment: Cytotoxicity against human A431 cells after 3 days by sulforhodamine B assay; type: functional; details: A-431, 72 h, read-out: ED50 (the source's name)
[10] = tested on: LNCaP; experiment: Cytotoxicity against human LNCAP cells after 3 days by sulforhodamine B assay; type: functional; details: 72 h, read-out: ED50 (the source's name)
[11] = tested on: ZR-75-1; experiment: Cytotoxicity against human ZR-75-1 cells after 3 days by sulforhodamine B assay; type: functional; details: ZR-75-1, 72 h, read-out: ED50 (the source's name)
[12] = Cytotoxicity against human U373 cells after 3 days by sulforhodamine B assay; type: functional, U-373MG ATCC; details: U373 MG, 72 h, read-out: ED50 (the source's name)
[13] = tested on: Plasmodium falciparum; experiment: Antimalarial activity after 24 hrs against Plasmodium falciparum D6 infected type A+ human erythrocytes by [3H]hypoxanthine uptake; type: functional; details: D6, read-out: ED50
[14] = tested on: Plasmodium falciparum; experiment: Antimalarial activity after 24 hrs against Plasmodium falciparum W2 infected in type A+ human erythrocytes by [3H]hypoxanthine uptake; type: functional; details: W2, read-out: ED50
[15] = Selectivity index, ratio of ED50 for human KB cells to ED50 for Plasmodium falciparum D6; type: toxicity, cell-based; details: read-out: Ratio ED50
[16] = Selectivity index, ratio of ED50 for human KB cells to ED50 for Plasmodium falciparum W2; type: toxicity, cell-based; details: read-out: Ratio ED50

Row | SMILES | EC50 [1] [µg/mL] | EC50 [2] [µg/mL] | EC50 [3] [µg/mL] | EC50 [4] [µg/mL] | EC50 [5] [µg/mL] | EC50 [6] [µg/mL] | EC50 [7] [µg/mL] | EC50 [8] [µg/mL] | EC50 [9] [µg/mL] | EC50 [10] [µg/mL] | EC50 [11] [µg/mL] | EC50 [12] [µg/mL] | EC50 [13] [µg/mL] | EC50 [14] [µg/mL] | selectivity ratio [15] | selectivity ratio [16]
1 | COC1C=C[C@@]23CCN(Cc4cc5c(cc42)OCO5)[C@@H]3C1 (stereo partly drawn) | > 20 | > 20 | > 20 | > 20 | > 20 | > 20 | 19.8 (≈ 69.4 µM) | > 5 | > 20 | > 20 | > 20 | > 20 |  |  |  | 
2 | O[C@H]1[C@H]2c3cc4c(cc3CN3CCC(=C[C@@H]1O)[C@H]23)OCO4 [LYCORINE] | 1.6 (≈ 5.57 µM) | 0.5 (≈ 1.74 µM) | 0.9 (≈ 3.13 µM) | 1.6 (≈ 5.57 µM) | 0.8 (≈ 2.78 µM) | 0.3 (≈ 1.04 µM) | 0.4 (≈ 1.39 µM) | 0.9 (≈ 3.13 µM) | 1.3 (≈ 4.52 µM) | 0.5 (≈ 1.74 µM) | 0.9 (≈ 3.13 µM) | 0.3 (≈ 1.04 µM) | 0.32 (≈ 1.11 µM) | 0.3 (≈ 1.04 µM) | 1 | 1
3 | CCN(CC)CCCC(C)Nc1ccnc2cc(Cl)ccc12 (stereo not drawn) [CHLOROQUINE] |  |  |  |  |  |  |  |  |  |  |  |  | 0.0013 (≈ 0.00406 µM) | 0.0112 (≈ 0.035 µM) |  | 
4 | OC(c1cc(C(F)(F)F)nc2c(C(F)(F)F)cccc12)C1CCCCN1 (stereo not drawn) [MEFLOQUINE] |  |  |  |  |  |  |  |  |  |  |  |  | 0.0073 (≈ 0.0193 µM) | 0.0016 (≈ 0.00423 µM) | 480 | 2190
5 | CO[C@@H]1C[C@H]2N3CC[C@@]2(c2cc4c(cc2C3)OCO4)[C@H]2O[C@@H]12 | 2.8 (≈ 9.29 µM) | 1.2 (≈ 3.98 µM) | 3.7 (≈ 12.3 µM) | 3.2 (≈ 10.6 µM) | 2.4 (≈ 7.96 µM) | 0.6 (≈ 1.99 µM) | > 20 | 0.6 (≈ 1.99 µM) | 4.9 (≈ 16.3 µM) | 1.7 (≈ 5.64 µM) | 1.8 (≈ 5.97 µM) | 0.6 (≈ 1.99 µM) | 0.14 (≈ 0.465 µM) | 0.18 (≈ 0.597 µM) | 4 | 3
6 | C[C@@H]1CC[C@H]2[C@@H](C)C(=O)O[C@@H]3O[C@@]4(C)CC[C@@H]1[C@]32OO4 [ARTEMISININ] |  |  |  |  |  |  |  |  |  |  |  |  | 0.0006 (≈ 0.00213 µM) |  | > 33300 | > 40000
7 | C=C[C@H]1CN2CC[C@H]1C[C@H]2[C@H](O)c1ccnc2ccc(OC)cc12 [QUININE] |  |  |  |  |  |  |  |  |  |  |  |  | 0.0094 (≈ 0.029 µM) | 0.0245 (≈ 0.0755 µM) | > 2130 | > 820
8 | O[C@@H]1CC[C@H]2N3CC[C@@]2(c2cc4c(cc2C3)OCO4)[C@@H]1O | > 20 | > 20 | > 20 | > 20 | > 20 | > 20 | > 20 | > 5 | > 20 | > 20 | > 20 | > 20 |  |  |  | 
9 | CO[C@H]1C=C[C@@]23c4cc5c(cc4CN(C[C@@H]2O)[C@H]3C1)OCO5 | 1.4 (≈ 4.65 µM) | 1.3 (≈ 4.31 µM) | 1.4 (≈ 4.65 µM) | 5 (≈ 16.6 µM) | 1 (≈ 3.32 µM) | 1 (≈ 3.32 µM) | 0.6 (≈ 1.99 µM) | 0.7 (≈ 2.32 µM) | 6.9 (≈ 22.9 µM) | 1.5 (≈ 4.98 µM) | 0.8 (≈ 2.65 µM) | 0.9 (≈ 2.99 µM) |  |  | 0.4 | 0.4
